“And” between values parts separate entries of the source, which are not always exact repeats. Equal entries are not always repeated. Where two headings read alike, the source gives them in different places.
Columns and labels:
[1] = test system: Human iSNs (TRPA1, TRPM8, TRPV1); test: Calcium imaging of human iSNs exposed to TRP channel ligands; type: cell-based
[2] = test system: BN1 and BN2 iSNs (TrpA1, TrpM8, TrpV1); test: Calcium imaging of mouse iSNs exposed to Trp channel ligands (Map2::GCAMP5.G); type: cell-based
[3] = test system: MEFs; test: Reprogramming of MEFs in presence of EdU or mitotic inhibitor AraC; type: cell-based, mouse
Procedure: Immunohistochemistry, and RT-PCR: For immunofluorescence staining, cells were fixed 4% paraformaldehyde for 10 minutes at room temperature. Cells were then washed three times with PBS and subsequently permeabilized with 0.1% Triton X-100 (Sigma) in PBS. After washing and permeabilization cells were blocked in 5% horse serum for thirty minutes at room temperature. Primary staining was performed overnight at 4° C. in block. Secondary antibodies were diluted in blocking solution and stained room temperature for one hour. EdU staining was performed using Click-it EdU kit (C10337;Invitrogen) following manufacturer's instructions. […]
We examined whether the observed reprogramming of fibroblasts to the somatic sensory lineage requires cell division or specialized embryonic precursors. […] Second, to further block proliferation we applied the mitotic inhibitor arabinofuranosyl cytidine (AraC) to cultures continuously from three days post induction and quantified the number of Map2-positive cells on day 14.

[4] = human BN1 iSNs, KCl responders, 10 μM capsaicin, 100 μM menthol, 100 μM mustard oil
[5] = human BN2 iSNs, KCl responders, 10 μM capsaicin, 100 μM menthol, 100 μM mustard oil
[6] = mouse BN1 iSNs, KCl responders, 10 μM capsaicin, 100 μM menthol, 100 μM mustard oil
[7] = mouse BN2 iSNs, KCl responders, 10 μM capsaicin, 100 μM menthol, 100 μM mustard oil

CC1CCC(C(C)C)C(O)C1 (stereo not drawn) [menthol]
iSNs exhibiting calcium transients in response to ligand [1, 4]: 4.4%±1.4
iSNs exhibiting calcium transients in response to ligand [1, 5]: 6.0%±2.3
iSNs exhibiting calcium transients in response to ligand [2, 6]: 15.4%±2.6
iSNs exhibiting calcium transients in response to ligand [2, 7]: 17.4%±4.3

COc1cc(CNC(=O)CCCC/C=C/C(C)C)ccc1O [capsaicin]
iSNs exhibiting calcium transients in response to ligand [1, 4]: 4.4%±1.7
iSNs exhibiting calcium transients in response to ligand [1, 5]: 5.9%±3.3
iSNs exhibiting calcium transients in response to ligand [2, 6]: 19.7%±3.0
iSNs exhibiting calcium transients in response to ligand [2, 7]: 21.2%±3.5

C=CCN=C=S [mustard oil, allyl isothiocyanate]
iSNs exhibiting calcium transients in response to ligand [1]: 12.8%±4.5 and 8.8%±3.7
iSNs exhibiting calcium transients in response to ligand [2]: 12.9%±3.8 and 12.5%±3.4

Nc1ccn([C@@H]2O[C@H](CO)[C@@H](O)[C@@H]2O)c(=O)n1 [AraC, arabinofuranosyl cytidine]
inhibition of proliferative cells ([3]; 4 μM): > 90%
effect of mitotic inhibition on number of neurons (Map2-positive cells) produced during reprogramming ([3]; applied continuously from three days post induction, counted day 14, BN1 or BN2): did not significantly alter the number of neurons

From patent US10190094B2, “Methods and compositions related to induced sensory neurons” (priority 2013, dated 2019)
